In patent US8748426B2, “Inhibitors of diacylglycerol acyl transferase” (Piramal Enterprises Limited, priority 2009, dated 2014):
Values belong to the molecule of their own block, whether it stands above or below them.

Biological target: T1, hDGAT1 (Homo sapiens, UniProt O75907)
T1 sequence (O75907 1-488): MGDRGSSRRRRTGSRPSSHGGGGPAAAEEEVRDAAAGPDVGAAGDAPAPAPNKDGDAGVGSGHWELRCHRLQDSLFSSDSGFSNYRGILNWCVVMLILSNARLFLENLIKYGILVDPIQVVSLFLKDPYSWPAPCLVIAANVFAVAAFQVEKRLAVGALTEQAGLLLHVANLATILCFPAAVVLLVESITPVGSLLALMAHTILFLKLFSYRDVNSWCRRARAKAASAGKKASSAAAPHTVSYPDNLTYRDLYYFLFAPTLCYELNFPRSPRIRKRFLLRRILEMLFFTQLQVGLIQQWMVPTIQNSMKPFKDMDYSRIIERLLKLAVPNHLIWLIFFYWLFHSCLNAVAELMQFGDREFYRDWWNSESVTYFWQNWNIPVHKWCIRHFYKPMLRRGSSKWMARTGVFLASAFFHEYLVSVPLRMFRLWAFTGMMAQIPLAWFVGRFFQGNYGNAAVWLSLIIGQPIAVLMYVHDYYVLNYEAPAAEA
Test: In-vitro DGAT1 assay (14C oleoyl CoA, hDGAT1 microsomes from Sf9 cells)
Settings: for inhibition at 1 µM: read-out: % Inhibition of hDGAT1

SMILES: CC(C)[C@@H](C(=O)O)N1Cc2ccc(-c3ccc(NC(=S)Nc4cccc(C(F)(F)F)c4)cc3)cc2C1=O [Example 76, (S)-3-Methyl-2-(1-oxo-6-(4-(3-(3-(trifluoromethyl)phenyl)thioureido)phenyl)isoindolin-2-yl)butanoic acid]
inhibition at 1 µM: > 50%

SMILES: Cc1cc(NC(=O)c2ccc(OC(F)(F)F)cc2)ccc1-c1ccc2c(c1)C(=O)N([C@H](C(=O)O)C(C)C)C2 [Example 476, (S)-3-Methyl-2-(6-(2-methyl-4-(4-(trifluoromethoxy)benzamido)phenyl)-1-oxoisoindolin-2-yl)butanoic acid]
inhibition at 1 µM: > 50%

SMILES: CC(C)(C(=O)O)N1Cc2ccc(-c3ccc(NC(=O)c4ccc(Cl)cc4)cc3)cc2C1=O [Example 521, 2-(6-(4-(4-Chlorobenzamido)phenyl)-1-oxoisoindolin-2-yl)-2-methylpropanoic acid]
inhibition at 1 µM: > 50%

SMILES: CC(C)[C@@H](C(=O)O)N1Cc2ccc(-c3ccc(NC(=O)c4ccc(OC(F)(F)F)cc4)cc3F)cc2C1=O [Example 608, (S)-2-(6-(2-Fluoro-4-(4-(trifluoromethoxy)benzamido)phenyl)-1-oxoisoindolin-2-yl)-3-methylbutanoic acid]
inhibition at 1 µM: > 50%

SMILES: CC(C)[C@@H](C(=O)O)N1Cc2ccc(-c3ccc(NC(=O)c4ccc(-c5ccccc5)cc4)c(F)c3)cc2C1=O [Example 448, (S)-2-(6-(4-Biphenyl-4-ylcarboxamido-3-fluorophenyl)-1-oxoisoindolin-2-yl)-3-methylbutanoic acid]
% Inhibition of hDGAT1 (at 1 μM): ++ (>50% Inhibition)

SMILES: CC(C)(C)c1ccc(C(=O)Nc2ccc(-c3ccc4c(c3)C(=O)N(C(C)(C)C(=O)O)C4)cc2)cc1 [Example 519, 2-(6-(4-(4-(tert-Butyl)benzamido)phenyl)-1-oxoisoindolin-2-yl)-2-methyl propanoic acid]
inhibition at 1 µM: > 50%

SMILES: COc1ccc(S(=O)(=O)Nc2ccc(-c3ccc4c(c3)C(=O)N([C@H](C(=O)O)C(C)C)C4)cc2)cc1 [Example 90, (S)-2-(6-(4-(4-Methoxyphenylsulfonamido)phenyl)-1-oxoisoindolin-2-yl)-3-methylbutanoic acid]
inhibition at 1 µM: 10 to 50%

SMILES: Cc1oc(-c2ccccc2)nc1C(=O)Nc1ccc(-c2ccc3c(c2)C(=O)N([C@H](C(=O)O)C(C)C)C3)cc1 [Example 643, (S)-3-Methyl-2-(6-(4-(5-methyl-2-phenyloxazole-4-carboxamido)phenyl)-1-oxoisoindolin-2-yl)butanoic acid]
inhibition at 1 µM: > 50%

SMILES: CC(C)[C@@H](C(=O)O)N1Cc2ccc(-c3ccc(NC(=O)c4ccc5c(c4)OCO5)cc3)cc2C1=O [Example 128, (S)-2-(6-(4-(Benzo[d][1,3]dioxole-5-carboxamido)phenyl)-1-oxoisoindolin-2-yl)-3-methylbutanoic acid]
inhibition at 1 µM: > 50%

SMILES: O=C(Nc1ccc(-c2ccc3c(c2)C(=O)N([C@H](C(=O)O)c2ccccc2)C3)cc1)Nc1cccc(C(F)(F)F)c1 [Example 346, (S)-2-(1-Oxo-6-(4-(3-(3-(trifluoromethyl)phenyl)ureido)phenyl)isoindolin-2-yl)-2-phenylacetic acid]
inhibition at 1 µM: 10 to 50%

SMILES: O=C(Nc1ccc(-c2ccc3c(c2)C(=O)N(C2(C(=O)O)CCC2)C3)cc1)c1ccc(Cl)cc1 [Example 578, 1-(6-(4-(4-Chlorobenzamido)phenyl)-1-oxoisoindolin-2-yl)cyclobutane carboxylic acid]
inhibition at 1 µM: > 50%

SMILES: CC(C)[C@@H](C(=O)O)N1Cc2ccc(-c3ccc(NC(=O)c4cc(-c5ccc(C(F)(F)F)cc5)no4)cc3)cc2C1=O [Example 620, (S)-3-Methyl-2-(1-oxo-6-(4-(3-(4-(trifluoromethyl)phenyl)isoxazole-5-carboxamido)phenyl)isoindolin-2-yl)butanoic acid]
inhibition at 1 µM: > 50%

SMILES: CC(C)[C@@H](C(=O)O)N1Cc2cc(-c3ccc(NS(=O)(=O)c4cccc(Cl)c4)cc3)ccc2C1=O [Example 295, (S)-2-(5-(4-(3-Chlorophenylsulfonamido)phenyl)-1-oxoisoindolin-2-yl)-3-methyl butanoic acid]
inhibition at 1 µM: 10 to 50%

Further lines, results first:

inhibition at 1 µM: 10 to 50%
SMILES: COc1cccc(NC(=O)Nc2ccc(-c3ccc4c(c3)C(=O)N([C@H](C(=O)O)C(C)C)C4)cc2)c1 [Example 26, (S)-2-(6-(4-(3-(3-Methoxyphenyl)ureido)phenyl)-1-oxoisoindolin-2-yl)-3-methyl butanoic acid]

inhibition at 1 µM: 10 to 50%
SMILES: CC(C)[C@@H](C(=O)O)N1Cc2ccc(-c3ccc(NC(=O)Nc4ccc(F)cc4)cc3)cc2C1=O [Example 8, (S)-2-(6-(4-(3-(4-Fluorophenyl)ureido)phenyl)-1-oxoisoindolin-2-yl)-3-methyl butanoic acid]

inhibition at 1 µM: 10 to 50%
SMILES: CC(C)[C@@H](C(=O)O)N1Cc2ccc(-c3ccc(NC(=O)Nc4ccccc4F)cc3)cc2C1=O [Example 12, (S)-2-(6-(4-(3-(2-Fluorophenyl)ureido)phenyl)-1-oxoisoindolin-2-yl)-3-methyl butanoic acid]

inhibition at 1 µM: > 50%
SMILES: CCCCc1ccc(C(=O)Nc2ccc(-c3ccc4c(c3)C(=O)N([C@H](C(=O)O)C(C)C)C4)cc2)cc1 [Example 164, (S)-2-(6-(4-(4-Butylbenzamido)phenyl)-1-oxoisoindolin-2-yl)-3-methylbutanoic acid]

inhibition at 1 µM: 10 to 50%
SMILES: CC(C)[C@H](C(=O)O)N1Cc2cc(-c3ccc(NC(=O)Nc4cccc(C(F)(F)F)c4)cc3)ccc2C1=O [Example 361, (R)-3-Methyl-2-(1-oxo-5-(4-(3-(3-(trifluoromethyl)phenyl)ureido)phenyl)isoindolin-2-yl)butanoic acid]

inhibition at 1 µM: 10 to 50%
SMILES: CC(C)[C@@H](C(=O)O)N1Cc2cc(-c3ccc(NC(=S)Nc4ccc(Cl)cc4)cc3)ccc2C1=O [Example 265, (S)-2-(5-(4-(3-(4-Chlorophenyl)thioureido)phenyl)-1-oxoisoindolin-2-yl)-3-methylbutanoic acid]

inhibition at 1 µM: 10 to 50%
SMILES: CC(C)[C@@H](C(=O)O)N1Cc2cc(-c3ccc(NC(=S)Nc4cccc(F)c4)cc3)ccc2C1=O [Example 259, (S)-2-(5-(4-(3-(3-Fluorophenyl)thioureido)phenyl)-1-oxoisoindolin-2-yl)-3-methyl butanoic acid]

inhibition at 1 µM: > 50%
SMILES: COc1cccc(NC(=S)Nc2ccc(-c3ccc4c(c3)C(=O)N([C@H](C(=O)O)C(C)C)C4)cc2)c1 [Example 60, (S)-2-(6-(4-(3-(3-Methoxyphenyl)thioureido)phenyl)-1-oxoisoindolin-2-yl)-3-methylbutanoic acid]

inhibition at 1 µM: > 50%
SMILES: CC(C)[C@@H](C(=O)O)N1Cc2cc(-c3ccc(NC(=O)Nc4ccc(F)cc4F)cc3)ccc2C1=O [Example 237, (S)-2-(5-(4-(3-(2,4-Difluorophenyl)ureido)phenyl)-1-oxoisoindolin-2-yl)-3-methylbutanoic acid]

inhibition at 1 µM: > 50%
SMILES: CC(C)[C@@H](C(=O)O)N1Cc2cc(-c3ccc(NC(=O)Nc4ccc(F)c(F)c4)cc3)ccc2C1=O [Example 239, (S)-2-(5-(4-(3-(3,4-Difluorophenyl)ureido)phenyl)-1-oxoisoindolin-2-yl)-3-methylbutanoic acid]

inhibition at 1 µM: 10 to 50%
SMILES: CC(C)[C@@H](C(=O)O)N1Cc2ccc(-c3ccc(NC(=O)Nc4ccc(F)c(F)c4)cc3)cc2C1=O [Example 32, (S)-2-(6-(4-(3-(3,4-Difluorophenyl)ureido)phenyl)-1-oxoisoindolin-2-yl)-3-methylbutanoic acid]
